The values that follow come from publication PMC8343220, “The selectivity of α‐adrenoceptor agonists for the human α1A, α1B, and α1D‐adrenoceptors” (Pharmacology Research & Perspectives, 2021).

Where only a bound is given, the exact number is not on record here.

In general, Kd refers to the free concentration of one partner at which half of the binding sites on the other are occupied at equilibrium, for simple one-to-one binding. Lower therefore signals higher affinity. The term IC50 denotes the midpoint of a concentration-inhibition curve. The low end stands for inhibition by little substance, the high end for a need for much substance. A word on the EC50: it is the concentration needed to bring the measured effect to its halfway point.

The subject of experiment [1] is parental CHO cell line without any transfected receptors. Briefly: Forskolin‐stimulated cAMP accumulation, parent CHO cells without transfected receptors. The format is cell-based, Chinese hamster. The note with it: CHO cells without transfected receptors; in presence of forskolin. (Cyclic AMP is a second messenger, typically raised through Gs and lowered through Gi signalling.)

Experiment [2] shares this test system. Nature of the experiment: ERK1/2‐phosphorylation, parent CHO cells without transfected receptors. The format is cell-based, Chinese hamster. The conditions noted are these: for ERK1/2-phosphorylation % PDBu: maximal response as % of PDBu (10μM) response.
Experiment [3] has as its target T1, human α1D‐adrenoceptor (full length) (Homo sapiens, UniProt P25100).
T1 construct: human α1D‐adrenoceptor (full length) were used; expressed in transfected cells; host or cells: CHO-K1
T1 sequence (P25100 1-572): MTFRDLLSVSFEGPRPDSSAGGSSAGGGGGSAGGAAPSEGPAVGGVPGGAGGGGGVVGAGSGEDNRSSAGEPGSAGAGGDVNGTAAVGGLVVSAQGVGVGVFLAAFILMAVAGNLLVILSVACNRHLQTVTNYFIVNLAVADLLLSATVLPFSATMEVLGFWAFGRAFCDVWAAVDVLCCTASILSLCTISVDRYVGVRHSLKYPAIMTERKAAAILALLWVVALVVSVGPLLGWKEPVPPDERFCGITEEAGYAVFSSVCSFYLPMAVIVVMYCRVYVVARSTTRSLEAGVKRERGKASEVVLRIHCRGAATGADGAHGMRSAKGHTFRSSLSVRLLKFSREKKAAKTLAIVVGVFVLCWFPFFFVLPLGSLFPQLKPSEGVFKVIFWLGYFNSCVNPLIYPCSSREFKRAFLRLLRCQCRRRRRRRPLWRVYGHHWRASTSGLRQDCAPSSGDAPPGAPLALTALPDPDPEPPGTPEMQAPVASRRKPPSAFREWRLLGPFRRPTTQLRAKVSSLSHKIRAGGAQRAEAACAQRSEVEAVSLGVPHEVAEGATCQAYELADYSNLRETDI
Briefly: Intracellular free calcium mobilization, CHO‐α1D cells. The format is cell-based. For orientation: A change in cytosolic calcium serves as a functional read-out for many receptors and channels.

Experiment [4] addresses T2, human α1B‐adrenoceptor (Homo sapiens, UniProt P35368).
T2 construct: expressed in transfected cells; host or cells: CHO-K1
T2 sequence (P35368 1-520): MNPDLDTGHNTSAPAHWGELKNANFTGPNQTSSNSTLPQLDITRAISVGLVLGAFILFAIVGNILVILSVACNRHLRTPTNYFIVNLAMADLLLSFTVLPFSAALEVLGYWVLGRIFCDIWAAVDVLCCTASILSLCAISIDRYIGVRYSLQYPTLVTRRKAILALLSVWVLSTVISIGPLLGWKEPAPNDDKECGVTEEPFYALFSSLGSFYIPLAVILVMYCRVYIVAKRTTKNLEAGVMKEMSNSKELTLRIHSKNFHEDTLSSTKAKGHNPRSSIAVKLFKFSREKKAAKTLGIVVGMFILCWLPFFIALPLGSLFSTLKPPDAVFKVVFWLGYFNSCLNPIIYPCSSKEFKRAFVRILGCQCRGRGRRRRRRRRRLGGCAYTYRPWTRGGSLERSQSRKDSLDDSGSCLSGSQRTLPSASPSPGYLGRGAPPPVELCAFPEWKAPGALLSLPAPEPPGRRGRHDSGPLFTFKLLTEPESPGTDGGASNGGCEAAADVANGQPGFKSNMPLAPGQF
Nature of the experiment: Intracellular free calcium mobilization, CHO‐α1B cells. The format is cell-based. The note with it: CHO‐α1B cells.

The target of experiment [5] is T3, human α1A‐adrenoceptor (Homo sapiens, UniProt P35348).
T3 construct: expressed in transfected cells; host or cells: CHO-K1
T3 sequence (P35348 1-466): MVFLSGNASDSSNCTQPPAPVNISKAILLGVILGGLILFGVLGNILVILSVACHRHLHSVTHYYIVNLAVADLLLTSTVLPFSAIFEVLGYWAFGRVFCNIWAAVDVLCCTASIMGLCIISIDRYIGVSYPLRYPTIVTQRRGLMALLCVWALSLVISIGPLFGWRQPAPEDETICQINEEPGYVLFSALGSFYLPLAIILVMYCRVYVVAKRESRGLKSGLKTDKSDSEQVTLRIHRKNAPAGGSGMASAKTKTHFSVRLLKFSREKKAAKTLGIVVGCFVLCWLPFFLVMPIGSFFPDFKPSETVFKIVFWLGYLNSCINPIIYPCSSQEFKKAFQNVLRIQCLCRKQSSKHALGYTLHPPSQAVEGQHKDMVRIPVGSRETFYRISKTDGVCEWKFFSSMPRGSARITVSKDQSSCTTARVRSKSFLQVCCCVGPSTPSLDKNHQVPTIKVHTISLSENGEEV
Briefly: ERK1/2‐phosphorylation (Surefire Alphascreen), CHO‐α1A cells. The format is cell-based. The note with it: CHO‐α1A cells, no EC50 obtained. (In general: Bead proximity is the source of the signal in Alpha formats.)

In experiment [6] the target is T1, human α1D‐adrenoceptor (full length). Nature of the experiment: ^3H‐prazosin whole‐cell radioligand binding, CHO‐α1D cells. The conditions noted are these: for Kd: CHO‐α1D cells.
Experiment [7] addresses T2, human α1B‐adrenoceptor. Briefly: ^3H‐prazosin whole‐cell radioligand binding, CHO‐α1B cells. The conditions noted are these: CHO‐α1B cells; printed as IC50> log value.
Experiment [8] has as its target T2, human α1B‐adrenoceptor. Briefly: ERK1/2‐phosphorylation (Surefire Alphascreen), CHO‐α1B cells. The format is cell-based. The note with it: CHO‐α1B cells.
For experiment [9], the target named is T1, human α1D‐adrenoceptor (full length). Nature of the experiment: ERK1/2‐phosphorylation (Surefire Alphascreen), CHO‐α1D cells. The format is cell-based.
In experiment [10] the target is T3, human α1A‐adrenoceptor. Briefly: ^3H‐prazosin whole‐cell radioligand binding, CHO‐α1A cells.
Experiment [11] addresses T3, human α1A‐adrenoceptor. Nature of the experiment: Intracellular free calcium mobilization, CHO‐α1A cells. The note with it: CHO‐α1A cells. The format is cell-based.
Setting [12] is: CHO cells without transfected receptors, mean ± s.e.m.
[13] abbreviates: 3H‐prazosin binding Log KD, whole‐cell binding (from Table 1), log values given negative.
Where [14] appears, read: given as log KD (negative), mean ± SEM, 'early plateau' = specific binding not fully inhibited.
The mark [15] stands for this setting: CHO‐α1D cells, log values given negative.

With `Nc1cc(Cl)c(N=C2NCCN2)c(Cl)c1` [Para-amino-clonidine], in experiment [1], the “cAMP accumulation (in presence of forskolin) Log EC50” value was “No response”. Besides, the “ERK1/2-phosphorylation % PDBu” value in [2] (setting [12]) is “No response”.
With `CNC[C@H](O)c1cccc(O)c1` [R-phenylephrine], in [1], the “cAMP accumulation (in presence of forskolin) Log EC50” value is “No response”. Further, in experiment [2] (setting [12]), the “ERK1/2-phosphorylation % PDBu” value was “No response”.
For `C1COC(NC(C2CC2)C2CC2)=N1` [Rilmenidine], the “Intracellular calcium release % Ionomycin at 100 µM” value in experiment [3] is recorded as 12.0 ± 0.9%; on human α1B‐adrenoceptor [4] (response at 100 µM ligand (no EC50 given), % of ionomycin response) it was 20.0 ± 3.9%. Also, the “ERK1/2‐phosphorylation % PDBu at 10 µM” value at human α1A‐adrenoceptor [5] (response at 10 μM ligand) is 89.0 ± 3.9%. For the same compound, the Kd in [6] (setting [13]) was 18.6 µM; in experiment [6] (setting [14]), 18.6 µM; on human α1A‐adrenoceptor [10] (Log KD α1A, ^3H‐prazosin whole cell binding, CHO‐α1A cells, given as log KD (negative), mean ± SEM) it was 32.4 µM. In addition, the “Affinity selectivity ratio α1A vs α1D” value in experiment [6] (higher affinity for α1D than α1A) is on record as 1.7 fold. In addition, the “Affinity selectivity ratio α1B vs α1D” value in [6] (higher affinity for α1D than α1B) is over 5.4 fold. This compound yielded an IC50 on human α1B‐adrenoceptor [7] of over 100 µM. The “ERK1/2‐phosphorylation Log EC50” value (at human α1B‐adrenoceptor [8] (for bi‐phasic responses the initial stimulatory part); in experiment [9] (setting [15])) was “No response” each time. In addition, the “ERK1/2‐phosphorylation % PDBu” value was “No response” on human α1B‐adrenoceptor [8] (maximal response as % PDBu response, for bi‐phasic responses the initial stimulatory part) and “No response” in [9]. Besides, the “ERK1/2-phosphorylation % PDBu” value in experiment [2] (setting [12]) is “No response”. In addition, in experiment [2] (setting [12]), the “ERK1/2-phosphorylation Log EC50” value is “No response”. Moreover, the “Affinity selectivity ratio α1A vs α1B” value on human α1A‐adrenoceptor [10] (higher affinity for α1A than α1B) is over 3.1 fold. In addition, the “Log efficacy ratio KD /EC50” value on human α1A‐adrenoceptor [11] (binding KD and calcium EC50) turned out to be 1.19. Moreover, the EC50 on human α1A‐adrenoceptor [11] (given as log EC50 (negative), read-out: Intracellular calcium release Log EC50 (converted)) is 2.09 µM. Also, at human α1A‐adrenoceptor [11] (maximal response as % of 10 µM ionomycin), the “Intracellular calcium release % ionomycin” value was 45.9 ± 3.8%.
For `CC(C)(C)NCC(O)c1ccc(O)c(CO)c1` (stereo not shown) [Salbutamol], the “Intracellular calcium release Log EC50” value in [3] (setting [15]) is given as “No response”. The “Intracellular calcium release % ionomycin” value in [3] (CHO‐α1D cells, maximal response as % of 10 µM ionomycin) is listed as “No response”; at human α1B‐adrenoceptor [4] (maximal response as % of 10 µM ionomycin response), 58.4 ± 3.0%. On human α1B‐adrenoceptor [4] (given as log EC50 (negative numbers), read-out: Intracellular calcium release Log EC50 (converted)), the EC50 was 7.24 µM. Further, the “ERK1/2‐phosphorylation % PDBu at 100 µM” value on human α1A‐adrenoceptor [5] (response at 100 μM ligand) is reported as 4.3 ± 1.9%; at human α1B‐adrenoceptor [8] (response at 100 µM ligand (no EC50 given)), 7.1 ± 3.5%; in experiment [9] (CHO‐α1D cells, response at 100 µM ligand (no EC50 given)), 4.0 ± 2.5%. The dissociation constant (Kd) in experiment [6] (setting [13]) and in experiment [6] (setting [14]) was 135 µM each time. On human α1B‐adrenoceptor [7], this compound registered an IC50 of over 1000 µM. In [2] (Cricetulus griseus, CHO, read-out: ERK1/2-phosphorylation % PDBu at 100μM), the Emax at 100 µM came out at 3.5 ± 2%.
